Data published in ChEMBL document CHEMBL1201862, “PubChem BioAssay data set” (2004).
The source made the active and inactive calls.

Columns and labels:
[1] = NIH/3T3 fibroblast cytotoxicity, dose response, cytotoxicity control, cell-based, plate reader, dry powder, set 2 (AID 652280); format: functional; settings: NIH3T3
[2] = T. cruzi growth inhibition in host cells, dose response, cell-based, plate reader, dry powder, set 2 (AID 652275); format: functional
[3] = biological target: Tyrosine-protein phosphatase non-receptor type 5 (Homo sapiens, UniProt P54829); test: STEP phosphatase inhibitors, confirmation, biochemical, fluorescence intensity, uHTS hits (AID 602372); format: functional; settings: read-out: IC50_Mean
[4] = biological target: Dual specificity protein phosphatase 3 (Homo sapiens, UniProt P51452); test: VHR phosphatase inhibition, dose response, selectivity assay for STEP inhibitor project, biochemical (AID 602374); format: functional; settings: read-out: IC50_Mean
[5] = biological target: Tyrosine-protein phosphatase non-receptor type 11 (Homo sapiens, UniProt Q06124); test: SHP2 phosphatase inhibition, dose response, selectivity assay for STEP inhibitor project, biochemical (AID 602367); format: functional; settings: read-out: IC50_Mean
[6] = biological target: T1, Tyrosine-protein phosphatase non-receptor type 22 (Homo sapiens, UniProt Q9Y2R2); test: PTPN22 phosphatase inhibition, dose response, selectivity assay for STEP inhibitor project, biochemical (AID 624241); format: functional
T1 sequence (Q9Y2R2 whole entry): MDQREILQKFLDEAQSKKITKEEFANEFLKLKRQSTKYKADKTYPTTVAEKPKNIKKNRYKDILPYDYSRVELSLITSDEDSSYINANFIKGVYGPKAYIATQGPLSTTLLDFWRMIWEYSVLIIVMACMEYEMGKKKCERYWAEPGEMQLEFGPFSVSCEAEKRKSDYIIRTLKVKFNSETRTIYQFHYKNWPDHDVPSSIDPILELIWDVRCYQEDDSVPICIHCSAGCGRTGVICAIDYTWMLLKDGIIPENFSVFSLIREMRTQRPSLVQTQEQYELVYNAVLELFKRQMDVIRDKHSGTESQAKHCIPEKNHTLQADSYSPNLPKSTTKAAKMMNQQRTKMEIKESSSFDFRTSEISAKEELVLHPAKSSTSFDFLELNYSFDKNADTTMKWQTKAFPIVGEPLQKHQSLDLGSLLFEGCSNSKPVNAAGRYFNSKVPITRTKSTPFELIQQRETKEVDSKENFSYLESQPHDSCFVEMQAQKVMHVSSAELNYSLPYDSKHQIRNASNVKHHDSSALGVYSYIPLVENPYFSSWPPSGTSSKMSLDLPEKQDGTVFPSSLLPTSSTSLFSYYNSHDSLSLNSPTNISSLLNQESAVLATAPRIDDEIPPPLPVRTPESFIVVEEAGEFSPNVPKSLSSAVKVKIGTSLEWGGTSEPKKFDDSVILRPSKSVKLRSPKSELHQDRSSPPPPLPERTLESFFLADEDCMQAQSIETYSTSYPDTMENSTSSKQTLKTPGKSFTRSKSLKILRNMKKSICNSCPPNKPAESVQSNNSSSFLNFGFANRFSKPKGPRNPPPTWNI

HEK293 = test: inhibitors of LMP1-driven NF-kB reporter, dose response, cell-based, HEK293, luciferase, cherry-pick (AID 588343); format: functional; settings: Homo sapiens
INS1 = test: beta cell apoptosis inhibitors, cytokine rescue, dose response, luminescence, retest (AID 449756); format: functional, cell-based; settings: Rattus norvegicus;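 also: cell death triggered by IL-1 beta plus TNF-alpha plus IFN-gamma mixture; protective hits raise ATP signal compared with cytokine alone wells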
[7] = Luminescence Cell-Based Dose Retest to Confirm Inhibitors of Cancer Stem Cells. [Related pubchem assays (depositor defined):AID2717, AID2721]; format: functional; settings: Homo sapiens
[8] = human group III sPLA2 inhibitors, dose response, biochemical, QFRET, IC50 (AID 743457);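 also: green fluorescence rise as the enzyme cleaves BODIPY PC-A2 in liposomes; potency for inhibition of the enzyme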
[9] = biological target: T2, Small ubiquitin-related modifier 1 (Homo sapiens, UniProt P63165); test: inhibitors of SUMO1 partner interactions, dose response, biochemical, FRET (AID 624383); format: functional; settings: read-out: IC50_Mean
[10] = biological target: T3, Low molecular weight phosphotyrosine protein phosphatase (Homo sapiens, UniProt P24666); format: functional; settings: read-out: IC50_Mean
T3 sequence (P24666 whole entry): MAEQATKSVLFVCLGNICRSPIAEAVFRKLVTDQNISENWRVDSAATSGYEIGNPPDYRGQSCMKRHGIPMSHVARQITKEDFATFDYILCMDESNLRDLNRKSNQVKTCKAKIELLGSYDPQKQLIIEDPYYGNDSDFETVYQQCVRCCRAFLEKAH

[11] = biological target: T4, Carboxy-terminal domain RNA polymerase II polypeptide A small phosphatase 1 (Homo sapiens, UniProt Q9GZU7); test: inhibitors of CTDSP1, concentration-response testing, biochemical assay, absorbance-based, actives from ultra-high-throughput screening (AID 540297); format: functional
T4 sequence (Q9GZU7 whole entry): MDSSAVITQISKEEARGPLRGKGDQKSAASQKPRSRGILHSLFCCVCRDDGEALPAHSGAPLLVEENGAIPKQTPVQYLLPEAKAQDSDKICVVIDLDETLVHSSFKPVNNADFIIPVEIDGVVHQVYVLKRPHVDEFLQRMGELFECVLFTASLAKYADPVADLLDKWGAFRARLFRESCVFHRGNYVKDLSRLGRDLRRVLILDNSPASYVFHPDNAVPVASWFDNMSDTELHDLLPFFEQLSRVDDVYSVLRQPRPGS

[12] = biological target: T3, Low molecular weight phosphotyrosine protein phosphatase; format: functional; settings: read-out: IC50_Mean; remark: listed apart in the source
[13] = biological target: T2, Small ubiquitin-related modifier 1; test: inhibitors of SUMO1 peptide binding, dose response, biochemical, fluorescence polarization, uHTS hits (AID 624382); format: functional; settings: read-out: IC50_Mean
Beta-galactosidase = Beta-galactosidase (Escherichia coli, UniProt Q8VNN2); test: Dose response counterscreen for EBI2 assay utilizing the enzyme, b-galactosidase.; format: functional
[14] = biological target: T5, Heat shock factor protein 1 (Mus musculus, UniProt P38532); test: HSF1 potentiators in luciferase reporter cells, confirmation, cell-based, NIH3T3, luminescence, dose retest (AID 435004); format: functional;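 also: stress induced by proteasome inhibitor MG132 added 30 min after compound; luciferase reporter driven by HSF1 response element in NIH3T3 cells; actives raise luminescence as potentiators of the MG132 stress response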
T5 sequence (P38532 whole entry): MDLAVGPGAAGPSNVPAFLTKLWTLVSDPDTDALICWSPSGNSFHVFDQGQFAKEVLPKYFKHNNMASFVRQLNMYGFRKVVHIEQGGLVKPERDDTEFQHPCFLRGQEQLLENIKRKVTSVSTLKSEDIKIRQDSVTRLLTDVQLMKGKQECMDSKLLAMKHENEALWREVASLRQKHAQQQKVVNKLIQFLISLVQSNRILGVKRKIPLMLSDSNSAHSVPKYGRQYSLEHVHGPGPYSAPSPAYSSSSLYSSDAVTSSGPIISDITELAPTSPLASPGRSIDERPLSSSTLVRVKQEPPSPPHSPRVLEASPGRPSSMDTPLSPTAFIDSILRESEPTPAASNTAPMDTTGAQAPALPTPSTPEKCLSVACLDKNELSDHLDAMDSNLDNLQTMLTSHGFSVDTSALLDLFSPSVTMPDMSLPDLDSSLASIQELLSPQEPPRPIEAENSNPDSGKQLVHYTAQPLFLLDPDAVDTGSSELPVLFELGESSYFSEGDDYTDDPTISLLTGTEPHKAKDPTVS

[15] = HEK293T cytotoxicity, dose response, cytotoxicity control for miR-122 modulator project, cell-based, activator set, cherry-pick (AID 720690); format: functional;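 also: HEK293T human cells scored for general mammalian cytotoxicity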
[16] = HEK293T cytotoxicity, dose response, cytotoxicity control for miR-122 modulator project, cell-based, inhibitor set, cherry-pick, set 2 (AID 720697); format: functional
[17] = biological target: T6, Short transient receptor potential channel 4 (Mus musculus, UniProt Q9QUQ5); test: mouse TRPC4 channel activators, dose response, cell-based, HEK293 TRPC4/mu-opioid, Fluo-4 calcium (AID 434937); format: functional
T6 sequence (Q9QUQ5 whole entry): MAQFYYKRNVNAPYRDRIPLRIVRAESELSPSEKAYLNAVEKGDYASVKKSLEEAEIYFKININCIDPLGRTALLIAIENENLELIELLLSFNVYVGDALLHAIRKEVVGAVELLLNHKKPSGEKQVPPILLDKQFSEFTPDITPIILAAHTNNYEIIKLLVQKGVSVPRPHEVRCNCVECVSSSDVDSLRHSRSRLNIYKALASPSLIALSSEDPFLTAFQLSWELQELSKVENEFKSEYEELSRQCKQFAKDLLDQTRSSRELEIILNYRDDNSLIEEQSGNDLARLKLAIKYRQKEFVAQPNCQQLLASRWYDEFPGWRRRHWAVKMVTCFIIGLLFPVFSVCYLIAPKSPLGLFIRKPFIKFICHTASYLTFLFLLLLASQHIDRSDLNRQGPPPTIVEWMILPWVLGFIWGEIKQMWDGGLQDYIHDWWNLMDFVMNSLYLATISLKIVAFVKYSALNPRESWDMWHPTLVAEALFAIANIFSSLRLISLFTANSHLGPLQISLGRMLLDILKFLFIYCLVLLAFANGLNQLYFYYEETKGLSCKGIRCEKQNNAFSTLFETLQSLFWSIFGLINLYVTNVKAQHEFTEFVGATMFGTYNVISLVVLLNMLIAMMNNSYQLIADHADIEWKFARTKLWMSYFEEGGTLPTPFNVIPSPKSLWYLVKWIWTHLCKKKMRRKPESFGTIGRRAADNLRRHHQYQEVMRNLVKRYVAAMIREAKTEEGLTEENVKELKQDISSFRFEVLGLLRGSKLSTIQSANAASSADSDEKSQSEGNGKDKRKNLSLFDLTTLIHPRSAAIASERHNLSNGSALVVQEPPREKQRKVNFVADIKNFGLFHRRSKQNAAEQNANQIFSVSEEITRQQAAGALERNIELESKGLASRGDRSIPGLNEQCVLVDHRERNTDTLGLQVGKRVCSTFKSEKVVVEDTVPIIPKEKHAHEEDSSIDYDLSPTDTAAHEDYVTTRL

Paired box protein Pax-8 = Paired box protein Pax-8 (Homo sapiens, UniProt Q06710); test: inhibitors of PAX8-driven TPO luciferase reporter, dose response, RMG-I cells, cherry-pick (AID 687027); format: functional, cell-based;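 also: luciferase reporter driven by Pax8 target thyroperoxidase promoter measured by SteadyGlo luminescence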
[18] = IGROV1 ovarian cancer cell cytotoxicity, dose response, PAX8 inhibitor project, plate reader, dry powder samples (AID 743043); format: functional, cell-based; settings: IGROV-1
[19] = HepG2 cell cytotoxicity, dose response, cytotoxicity control, cherry-picked samples (AID 1159577); format: functional, cell-based
[20] = P. falciparum Dd2 growth inhibitors, dose response, SYBR Green, cherry-picked samples (AID 1159567); format: functional, cell-based
[21] = LGR2 antagonists, dose response, cell-based, HEK293, CRE-luciferase reporter, cherry pick, set 2 (AID 743343); format: functional;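 also: transfected cells were stimulated with diluted bursicon conditioned medium after compound addition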
[22] = biological target: T5, Heat shock factor protein 1; test: inhibition of MG132-induced HSE-luciferase signal, confirmation, cell-based, NIH3T3, luminescence, dose retest (AID 2382); format: functional;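 also: NIH3T3 fibroblasts with HSF1-driven luciferase reporter stressed by proteasome inhibitor MG132; luminescence from HSF1-driven luciferase expression after 8 hours of MG132 stress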
[23] = A549 cell cytotoxicity, dose response, cytotoxicity control, plate reader, cherry-pick, antagonist series (AID 743412); format: functional, cell-based
[24] = HEK293 cell cytotoxicity, dose response, cytotoxicity control, plate reader, cherry-picked samples (AID 743446); format: functional, cell-based
[25] = HepG2 cell cytotoxicity, dose response, cytotoxicity control, plate reader, cherry-pick, antagonist series (AID 743416); format: functional, cell-based
[26] = MC4R antagonists, dose response, counter-screen for LGR2 antagonist project, cell-based, plate reader, cherry pick (AID 743444); format: functional;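 also: transfected HEK 293 cells stimulated with alpha-MSH peptide; potency of inhibitors of the alpha-MSH evoked signal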
[27] = biological target: Long-chain-fatty-acid--AMP ligase FadD28 (Mycobacterium tuberculosis, UniProt P9WQ59); test: Fluorescence polarization aasay to screen for inhibitors that compete for the binding of FadD28 to a bisubstrate Measured in Biochemical System Using Plate Reader - 2147-01_Inhibitor_Dose_CherryPick_Activity.; format: functional, Mycobacterium tuberculosis H37Rv
Sequence of Long-chain-fatty-acid--AMP ligase FadD28 (P9WQ59 whole entry): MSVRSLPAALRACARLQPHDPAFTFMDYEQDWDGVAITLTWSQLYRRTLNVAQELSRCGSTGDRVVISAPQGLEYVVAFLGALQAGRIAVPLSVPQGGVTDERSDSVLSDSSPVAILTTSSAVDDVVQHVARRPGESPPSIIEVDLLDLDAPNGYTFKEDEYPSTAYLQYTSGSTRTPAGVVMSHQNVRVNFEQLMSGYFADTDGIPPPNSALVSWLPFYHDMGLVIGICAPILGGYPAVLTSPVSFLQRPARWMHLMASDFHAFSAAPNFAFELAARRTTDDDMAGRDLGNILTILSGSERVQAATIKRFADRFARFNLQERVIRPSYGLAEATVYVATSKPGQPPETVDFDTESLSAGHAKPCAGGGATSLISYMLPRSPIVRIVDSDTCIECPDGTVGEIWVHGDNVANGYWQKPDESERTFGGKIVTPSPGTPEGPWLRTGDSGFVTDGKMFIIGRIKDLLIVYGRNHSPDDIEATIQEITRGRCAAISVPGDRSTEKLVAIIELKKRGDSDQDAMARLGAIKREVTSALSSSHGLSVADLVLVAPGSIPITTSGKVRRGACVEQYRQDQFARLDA

Sequence of Tyrosine-protein phosphatase non-receptor type 5 (P54829 whole entry): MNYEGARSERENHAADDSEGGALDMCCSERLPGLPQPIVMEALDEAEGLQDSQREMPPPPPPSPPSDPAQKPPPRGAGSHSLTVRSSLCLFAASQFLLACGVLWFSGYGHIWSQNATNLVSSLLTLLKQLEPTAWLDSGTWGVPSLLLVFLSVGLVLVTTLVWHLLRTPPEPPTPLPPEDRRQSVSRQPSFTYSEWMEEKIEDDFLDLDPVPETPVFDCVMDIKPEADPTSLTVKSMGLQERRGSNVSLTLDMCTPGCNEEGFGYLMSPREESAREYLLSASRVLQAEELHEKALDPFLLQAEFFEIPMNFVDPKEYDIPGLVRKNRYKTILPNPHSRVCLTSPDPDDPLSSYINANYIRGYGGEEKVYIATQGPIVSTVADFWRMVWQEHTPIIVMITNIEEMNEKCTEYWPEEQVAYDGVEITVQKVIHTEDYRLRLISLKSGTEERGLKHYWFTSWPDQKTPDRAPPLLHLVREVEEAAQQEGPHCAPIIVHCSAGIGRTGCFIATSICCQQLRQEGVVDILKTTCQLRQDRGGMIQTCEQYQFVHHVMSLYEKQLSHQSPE
T2 sequence (P63165 whole entry): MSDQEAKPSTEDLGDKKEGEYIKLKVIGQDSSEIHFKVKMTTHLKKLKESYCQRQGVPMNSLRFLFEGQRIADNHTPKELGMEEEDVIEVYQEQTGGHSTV
Sequence of Tyrosine-protein phosphatase non-receptor type 11 (Q06124 whole entry): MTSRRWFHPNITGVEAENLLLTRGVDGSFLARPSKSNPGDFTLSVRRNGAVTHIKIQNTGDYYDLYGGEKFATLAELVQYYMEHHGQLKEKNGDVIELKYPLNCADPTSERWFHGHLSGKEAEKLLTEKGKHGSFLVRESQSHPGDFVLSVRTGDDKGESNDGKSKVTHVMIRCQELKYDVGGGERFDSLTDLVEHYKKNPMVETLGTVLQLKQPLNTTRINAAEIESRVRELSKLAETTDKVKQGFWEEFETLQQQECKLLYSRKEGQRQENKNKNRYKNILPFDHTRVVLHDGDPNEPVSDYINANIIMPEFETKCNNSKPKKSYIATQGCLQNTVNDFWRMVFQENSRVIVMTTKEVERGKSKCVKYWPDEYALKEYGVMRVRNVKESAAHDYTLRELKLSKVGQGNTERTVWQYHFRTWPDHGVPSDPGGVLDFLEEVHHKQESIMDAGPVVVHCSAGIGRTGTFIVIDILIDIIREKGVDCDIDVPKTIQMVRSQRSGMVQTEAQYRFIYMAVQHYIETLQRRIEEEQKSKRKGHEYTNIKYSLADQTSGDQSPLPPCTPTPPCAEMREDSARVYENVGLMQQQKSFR
Sequence of Dual specificity protein phosphatase 3 (P51452 whole entry): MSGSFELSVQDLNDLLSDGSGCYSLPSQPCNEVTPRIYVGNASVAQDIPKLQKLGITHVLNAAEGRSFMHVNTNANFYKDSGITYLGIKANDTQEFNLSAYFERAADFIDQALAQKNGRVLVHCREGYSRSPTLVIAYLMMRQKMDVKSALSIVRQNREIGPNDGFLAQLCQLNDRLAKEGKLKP
Sequence of Beta-galactosidase (Q8VNN2 whole entry): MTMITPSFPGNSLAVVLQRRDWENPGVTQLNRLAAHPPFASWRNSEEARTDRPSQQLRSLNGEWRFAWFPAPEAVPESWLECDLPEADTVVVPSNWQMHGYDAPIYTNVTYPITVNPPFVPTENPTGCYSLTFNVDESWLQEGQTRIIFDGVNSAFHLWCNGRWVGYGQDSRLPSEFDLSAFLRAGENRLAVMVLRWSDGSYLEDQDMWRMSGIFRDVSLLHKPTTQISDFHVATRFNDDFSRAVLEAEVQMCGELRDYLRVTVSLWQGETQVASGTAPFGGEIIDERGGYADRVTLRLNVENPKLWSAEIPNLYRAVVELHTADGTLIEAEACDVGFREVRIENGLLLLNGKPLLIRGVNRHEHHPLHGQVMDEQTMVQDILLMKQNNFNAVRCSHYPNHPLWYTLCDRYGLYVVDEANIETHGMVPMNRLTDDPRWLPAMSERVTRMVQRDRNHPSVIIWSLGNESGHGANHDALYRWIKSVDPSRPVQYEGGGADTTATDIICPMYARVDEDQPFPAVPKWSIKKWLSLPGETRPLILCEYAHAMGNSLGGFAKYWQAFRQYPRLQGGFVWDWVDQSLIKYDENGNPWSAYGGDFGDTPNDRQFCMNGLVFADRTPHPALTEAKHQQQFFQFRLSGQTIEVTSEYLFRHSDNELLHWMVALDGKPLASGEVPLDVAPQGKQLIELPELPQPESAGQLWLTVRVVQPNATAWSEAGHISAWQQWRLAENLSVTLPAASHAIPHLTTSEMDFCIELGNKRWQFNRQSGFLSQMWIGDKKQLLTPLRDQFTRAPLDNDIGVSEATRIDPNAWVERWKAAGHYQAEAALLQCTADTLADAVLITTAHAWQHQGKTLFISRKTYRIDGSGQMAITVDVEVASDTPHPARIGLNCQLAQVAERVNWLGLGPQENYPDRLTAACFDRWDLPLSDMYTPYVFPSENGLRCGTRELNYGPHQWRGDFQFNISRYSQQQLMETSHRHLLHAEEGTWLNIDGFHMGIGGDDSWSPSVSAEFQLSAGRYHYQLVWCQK
Sequence of Paired box protein Pax-8 (Q06710 whole entry): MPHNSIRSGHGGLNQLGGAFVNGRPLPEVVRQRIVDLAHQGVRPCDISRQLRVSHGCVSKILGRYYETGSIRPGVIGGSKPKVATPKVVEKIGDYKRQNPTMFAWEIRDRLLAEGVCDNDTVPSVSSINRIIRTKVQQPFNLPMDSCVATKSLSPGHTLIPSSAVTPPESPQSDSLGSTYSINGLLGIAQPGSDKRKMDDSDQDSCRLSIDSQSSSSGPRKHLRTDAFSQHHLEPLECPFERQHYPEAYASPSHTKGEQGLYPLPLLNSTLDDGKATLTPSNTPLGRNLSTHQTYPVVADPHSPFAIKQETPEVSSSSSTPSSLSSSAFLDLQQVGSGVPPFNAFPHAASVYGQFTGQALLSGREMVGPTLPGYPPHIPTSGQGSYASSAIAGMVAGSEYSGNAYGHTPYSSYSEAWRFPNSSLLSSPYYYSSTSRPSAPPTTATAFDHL

Compound: CC(C)N1C[C@@H](CN(C)Cc2ccc(Oc3ccccc3)cc2)Oc2c(NC(=O)c3ccncc3)cccc2C1=O
- AC50 [1]: 2.36 µM (active)
- AC50 [2]: 0.00223 µM (active)

Compound: COc1ccc(Cl)cc1N=C(S)N(CCCN1CCOCC1)Cc1cn(C)c2ccccc12
- IC50 [3]: 13.9 µM (active)
- IC50 [4]: 0.754 µM (active)
- IC50 [5]: 2.07 µM (active)
- IC50 [6]: 38.5 µM (inactive)

Compound: Cc1cc(C)nc(SCc2ccc(C(=O)N/N=C/c3cccc(O)c3O)cc2)n1
- AC50 (HEK293): 9.36 µM (active)
- AC50 (INS1): 2.22 µM (active)
- AC50 [7]: 3.83 µM (active)
- IC50 [8]: > 122 µM (inactive)

Compound: CC(C)N1CC[C@@H](CN(C)Cc2ccc(Oc3ccccc3)cc2)Oc2c(NC(=O)c3ccncc3)cccc2C1=O
- AC50 [1]: 23.4 µM (active)
- AC50 [2]: 0.0195 µM (active)

Compound: Cc1cc(C(=O)N/N=C/c2ccc(-c3ccc([N+](=O)[O-])cc3Cl)o2)[nH]n1
- IC50 [3]: 6.83 µM (active)
- IC50 [4]: 1.36 µM (active)
- IC50 [9]: 13.8 µM (active)
- IC50 [5]: 3.42 µM (active)
- IC50 [10]: 19 µM (active)
- IC50 [11]: 7.05 µM (active)
- IC50 [12]: > 80 µM (inactive)
- IC50 [6]: > 100 µM (inactive)
- IC50 [13]: > 66.6 µM (inactive)

Compound: CCn1cc(C(=O)NN)c(=O)c2cc(F)c(NC3CCCCC3)cc21
- IC50 (Beta-galactosidase): > 80 µM (inactive)
- EC50 [14]: > 260 µM (inactive)

Compound: FC(F)(F)c1cnc(N2CCCN(C(S)=Nc3ccccc3)CC2)c(Cl)c1
- AC50 [15]: 26.9 µM (active)
- AC50 [16]: 3.78 µM (active)
- EC50 [17]: 0.421 µM (active)

Compound: O=C(NN=C(S)Nc1ccc(F)cc1)[C@H]1C[C@@H]1c1ccccc1
- IC50 [8]: > 122 µM (inactive)

Compound: C[C@@H]1CN([C@@H](C)CO)C(=O)Cc2cc(NC(=O)Nc3ccccc3)ccc2O[C@H]1CN(C)Cc1ccc(Oc2ccccc2)cc1
- AC50 (Paired box protein Pax-8): 9.84 µM (active)
- AC50 [18]: 55.6 µM (active)
- AC50 [19]: 12.9 µM (active)
- AC50 [20]: 1.05 µM (active)

Compound: O=C(O)c1ccc2nc(-c3ccccc3)sc2c1
- AC50 [21]: 3.7 µM (active)
- EC50 [22]: 5.85 µM (active)
- AC50 [23]: > 52 µM (inactive)
- AC50 [24]: > 52 µM (inactive)
- AC50 [25]: > 52 µM (inactive)
- AC50 [26]: 3.35 µM (active)

Compound: CCn1c(C)cc(/C=C2\NC(=O)N(CC(=O)Nc3cccc(C)c3)C2=O)c1C
- AC50 [27]: 77.2 µM (active)
